Results as given in patent US12599672B2, “KRAS proteolysis targeting chimeras” (PAQ Therapeutics Inc., priority 2023, dated 2026).

How the values were obtained:
Format in all cases: cell-based
KRAS = biological target: T1, KRAS (Homo sapiens, UniProt P01116); assay: KRASamp MSD assay; conditions: KE39 (KRAS amplified) cells, treated with test compounds for 24 hr, MSD readout of KRAS degradation
T1 construct: endogenous in cells; host or cells: KE39 (KRAS amplified) cells
In short: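 Degradation DC50 derived by curve fitting, with KRAS levels quantified by MSD electrochemiluminescence (capture/detection antibodies, recombinant WT KRAS standard). Lysates prepared from KE39 cells (KRAS amplified) exposed to test compounds for 24 hr.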

KRAS G12V = biological target: T2, KRAS G12V (Homo sapiens, UniProt P01116, G12V); assay: KRAS G12V HiBit assay; conditions: SW620-KRAS (G12V)-HiBit-KI cells, compound treatment for 24 hours
T2 construct: SW620-KRAS (G12V)-HiBit-KI cell (Pharmaron); host or cells: SW620-KRAS (G12V)-HiBit-KI cells (HiBiT knock-in at the endogenous KRAS locus)
In short: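 Luminescence from lytic Nano-Glo HiBiT detection with LgBiT read KRAS G12V levels after 24 h compound exposure. Dilutions were 10-point, 3-fold, from a 0.3 mM DMSO stock. Degradation activity was normalised to cells given 0.1% DMSO alone.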

KRAS G12D = biological target: T3, KRAS G12D (Homo sapiens, UniProt P01116, G12D); assay: KRAS G12D HiBit assay; conditions: AsPc-1-KRAS (G12D)-HiBit-KI cell, compound treatment for 24 hours; for DC50: absolute DC50
T3 construct: AsPc-1-KRAS (G12D)-HiBit-KI cell (Pharmaron); host or cells: AsPc-1-KRAS (G12D)-HiBit-KI cells (HiBiT knock-in at the endogenous KRAS locus)
In short: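 HiBiT luminescence, detected by adding lytic buffer, substrate and LgBiT protein, served as the KRAS G12D read-out. Compounds, serially diluted 3-fold over 10 points from 0.3 mM DMSO stock, were on cells for 24 h; percent inhibition normalized to cells given 0.1% DMSO only.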

T2 sequence (P01116 1-188 isoform P01116-2 G12V): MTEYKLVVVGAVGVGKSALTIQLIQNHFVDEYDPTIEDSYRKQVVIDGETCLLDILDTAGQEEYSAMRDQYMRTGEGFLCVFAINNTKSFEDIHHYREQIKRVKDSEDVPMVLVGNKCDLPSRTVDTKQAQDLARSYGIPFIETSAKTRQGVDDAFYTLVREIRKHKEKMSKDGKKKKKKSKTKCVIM
T1 sequence (P01116 1-188 isoform P01116-2): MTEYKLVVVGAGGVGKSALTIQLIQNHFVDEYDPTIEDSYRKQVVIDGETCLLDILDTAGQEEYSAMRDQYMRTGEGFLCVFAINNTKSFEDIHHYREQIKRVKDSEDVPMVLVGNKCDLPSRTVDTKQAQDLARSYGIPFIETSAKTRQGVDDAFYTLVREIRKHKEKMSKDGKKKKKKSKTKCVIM
T3 sequence (P01116 1-188 isoform P01116-2 G12D): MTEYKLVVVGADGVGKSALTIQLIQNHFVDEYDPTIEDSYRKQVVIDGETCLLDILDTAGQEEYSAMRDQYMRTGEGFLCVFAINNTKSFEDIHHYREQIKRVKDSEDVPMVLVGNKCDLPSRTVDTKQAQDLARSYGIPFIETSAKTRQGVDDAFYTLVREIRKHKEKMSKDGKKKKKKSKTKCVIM

| DC50 (KRAS) [nM] | DC50 (KRAS G12V; class symbols) [nM] | DC50 (KRAS G12D; class symbols) [nM] | DC50 (KRAS G12D; numeric bounds given in place of class symbols) [nM] | DC50 (KRAS G12V; numeric bounds) [nM] | Dmax (KRAS G12D; class symbols) [%] | Structure (SMILES) |
| --- | --- | --- | --- | --- | --- | --- |
| < 1 | < 10 | < 100 |  |  |  | C#Cc1c(F)ccc2cc(O)cc(-c3ncc4c(N5CCC[C@@](C)(O)C5)nc(OC[C@]56CCCN5[C@H](COC(=O)N5CCC(CN7CCC(c8ccc9c(c8)n(C)c(=O)n9C8CCC(=O)NC8=O)CC7)CC5)CC6)nc4c3F)c12 (stereo partly shown) [Compound 134] |
| < 1 | < 10 | < 100 |  |  |  | Cn1c(=O)n(C2CCC(=O)NC2=O)c2ccc(C3CCN(CC4(F)CCN(C(=O)OC[C@@H]5CC[C@]6(COc7nc(N8CCC[C@@](C)(O)C8)c8cnc(-c9cc(O)cc%10ccc(F)cc9%10)c(F)c8n7)CCCN56)CC4)CC3)cc21 (stereo partly drawn) [Compound 446, ((3S,7aS)-7a-(((8-fluoro-7-(7-fluoro-3-hydroxynaphthalen-1-yl)-4-((R)-3-hydroxy-3-methylpiperidin-1-yl)pyrido[4,3-d]pyrimidin-2-yl)oxy)methyl)hexahydro-1H-pyrrolizin-3-yl)methyl 4-((4-(1-(2,6-dioxopiperidin-3-yl)-3-methyl-2-oxo-2,3-dihydro-1H-benzo[d]imidazol-5-yl)piperidin-1-yl)methyl)-4-fluoropiperidine-1-carboxylate] |
| < 1 | < 10 | < 100 |  |  |  | CCc1c(F)ccc2cc(O)cc(-c3ncc4c(N5CCC[C@@](C)(O)C5)nc(OC[C@@]56CCCN5[C@H](COC(=O)N5CCC7(CC5)CC(N5CCC(c8ccc9c(c8)n(C)c(=O)n9C8CCC(=O)NC8=O)CC5)C7)CC6)nc4c3F)c12 (stereo partly drawn) [Compound 159, ((3S,7aS)-7a-(((7-(8-Ethyl-7-fluoro-3-hydroxynaphthalen-1-yl)-8-fluoro-4-((R)-3-hydroxy-3-methylpiperidin-1-yl)pyrido[4,3-d]pyrimidin-2-yl)oxy)methyl)hexahydro-1H-pyrrolizin-3-yl)methyl2-(4-(1-(2,6-dioxopiperidin-3-yl)-3-methyl-2-oxo-2,3-dihydro-1H-benzo[d]imidazol-5-yl)piperidin-1-yl)-7-azaspiro[3.5]nonane-7-carboxylate] |
| 1 to 10 | < 10 | < 100 |  |  |  | C#Cc1c(F)ccc2cc(O)cc(-c3ncc4c(N5CCC[C@@](C)(O)C5)nc(OC[C@@]56CCCN5[C@H](COC(=O)N5CCC(OCCC#Cc7ccc8c(c7)n(C)c(=O)n8C7CCC(=O)NC7=O)CC5)CC6)nc4c3F)c12 (stereo partly drawn) [Compound 369, ((3S,7aS)-7a-(((7-(8-ethynyl-7-fluoro-3-hydroxynaphthalen-1-yl)-8-fluoro-4-((R)-3-hydroxy-3-methylpiperidin-1-yl)pyrido[4,3-d]pyrimidin-2-yl)oxy)methyl)hexahydro-1H-pyrrolizin-3-yl)methyl 4-((4-(1-(2,6-dioxopiperidin-3-yl)-3-methyl-2-oxo-2,3-dihydro-1H-benzo[d]imidazol-5-yl)but-3-yn-1-yl)oxy)piperidine-1-carboxylate] |
| 1 to 10 | > 100 | < 100 |  |  |  | CCc1c(F)ccc2cc(O)cc(-c3ncc4c(N5CCC[C@@](C)(O)C5)nc(OC[C@]56CCCN5[C@H](COC(=O)N5CCC(c7ccc8c(c7)n(C)c(=O)n8C7CCC(=O)NC7=O)CC5)CC6)nc4c3F)c12 (stereo partly drawn) [Compound 307, ((3S,7aR)-7a-(((7-(8-ethyl-7-fluoro-3-hydroxynaphthalen-1-yl)-8-fluoro-4-((R)-3-hydroxy-3-methylpiperidin-1-yl)pyrido[4,3-d]pyrimidin-2-yl)oxy)methyl)hexahydro-1H-pyrrolizin-3-yl)methyl 4-(1-(2,6-dioxopiperidin-3-yl)-3-methyl-2-oxo-2,3-dihydro-1H-benzo[d]imidazol-5-yl)piperidine-1-carboxylate] |
| ≥ 10 | < 10 | < 100 |  |  |  | C#Cc1c(F)ccc2cc(O)cc(-c3ncc4c(N5CCC[C@@](C)(O)C5)nc(OCC5(CN6CCC7(CC6)CCN(c6ccc8c(c6)n(C)c(=O)n8C6CCC(=O)NC6=O)CC7)CC5)nc4c3F)c12 (stereo partly shown) [Compound 52] |
| 1 to 10 | 10 to 100 | < 100 |  |  |  | C#Cc1cc(F)cc2cc(O)cc(-c3ncc4c(N5CCC[C@@](C)(O)C5)nc(OC[C@@]56CCCN5[C@H](COC(=O)N5CCC(CN7CCC(c8ccc9c(c8)n(C)c(=O)n9C8CCC(=O)NC8=O)CC7)CC5)CC6)nc4c3F)c12 (stereo partly drawn) [Compound 405, ((3S,7aS)-7a-(((7-(8-Ethynyl-6-fluoro-3-hydroxynaphthalen-1-yl)-8-fluoro-4-((R)-3-hydroxy-3-methylpiperidin-1-yl)pyrido[4,3-d]pyrimidin-2-yl)oxy)methyl)hexahydro-1H-pyrrolizin-3-yl)methyl 4-((4-(1-(2,6-dioxopiperidin-3-yl)-3-methyl-2-oxo-2,3-dihydro-1H-benzo[d]imidazole-5-yl)piperidin-1-yl)methyl) piperidine-1-carboxylate] |
| ≥ 10 | > 100 |  | > 100 |  |  | CCc1c(F)ccc2cc(O)cc(-c3ncc4c(N5CCC[C@@](C)(O)C5)nc(OC[C@@]56CCCN5[C@@H](COC(=O)N5CCC(CCCOc7ccc8c(c7)n(C)c(=O)n8C7CCC(=O)NC7=O)CC5)CC6)nc4c3F)c12 (stereo partly drawn) [Compound 316, ((3R,7aS)-7a-(((7-(8-ethyl-7-fluoro-3-hydroxynaphthalen-1-yl)-8-fluoro-4-((R)-3-hydroxy-3-methylpiperidin-1-yl)pyrido[4,3-d]pyrimidin-2-yl)oxy)methyl)hexahydro-1H-pyrrolizin-3-yl)methyl 4-(3-((1-(2,6-dioxopiperidin-3-yl)-3-methyl-2-oxo-2,3-dihydro-1H-benzo[d]imidazol-5-yl)oxy)propyl)piperidine-1-carboxylate] |
| ≥ 10 | < 10 | < 100 |  |  |  | C#Cc1c(F)ccc2cc(O)cc(-c3ncc4c(N5CCC[C@@](C)(O)C5)nc(OCC5(CN6CCC(N7CCC(c8ccc9c(C%10CCC(=O)NC%10=O)nn(C)c9c8)CC7)CC6)CC5)nc4c3F)c12 (stereo partly shown) [Compound 58] |
| < 1 | < 10 | < 100 |  |  |  | C#Cc1c(F)ccc2cc(O)cc(-c3ncc4c(N5CCC[C@@](C)(O)C5)nc(OCC5(CN6CCC7(CC6)CC(N6CCN(c8ccc9c(c8)n(C)c(=O)n9C8CCC(=O)NC8=O)CC6)C7)CC5)nc4c3F)c12 (stereo partly shown) [Compound 56] |
| < 1 |  | < 100 |  | > 38.9 |  | C#Cc1c(F)ccc2cc(O)cc(-c3ncc4c(N5CCC[C@@](C)(O)C5)nc(OC[C@@]56CCCN5[C@@H](COC(=O)N5CCC(CN7CCC(c8ccc9c(c8)n(C)c(=O)n9C8CCC(=O)NC8=O)CC7)CC5)CC6)nc4c3F)c12 (stereo partly shown) [Compound 140] |
| < 1 | < 10 | < 100 |  |  | > 50 | CCc1c(F)ccc2cc(O)cc(-c3ncc4c(N5CCC[C@@](C)(O)C5)nc(OC[C@@]56CCCN5[C@H](COC(=O)N5CCC(CN7CCC(c8cc9c(cc8F)n(C8CCC(=O)NC8=O)c(=O)n9C)CC7)CC5)CC6)nc4c3F)c12 (stereo partly drawn) [Compound 101, ((35,7aS)-7a-(((7-(8-Ethyl-7-fluoro-3-hydroxynaphthalen-1-yl)-8-fluoro-4-((R)-3-hydroxy-3-methylpiperidin-1-yl)pyrido[4,3-d]pyrimidin-2-yl)oxy)methyl)hexahydro-1H-pyrrolizin-3-yl)methyl 4-((4-(1-(2,6-dioxopiperidin-3-yl)-6-fluoro-3-methyl-2-oxo-2,3-dihydro-1H-benzo[d]imidazol-5-yl)piperidin-1-yl)methyl) piperidine-1-carboxylate] |
| 1 to 10 | < 10 | < 100 |  |  |  | CCc1c(F)ccc2cc(O)cc(-c3ncc4c(N5CCC[C@@](C)(O)C5)nc(OC[C@@]56CCCN5[C@H](COC(=O)N5CC7(CN(CC8CCN(c9ccc%10c(c9)n(C)c(=O)n%10C9CCC(=O)NC9=O)CC8)C7)C5)CC6)nc4c3F)c12 (stereo partly drawn) [Compound 462, ((3S,7aS)-7a-(((7-(8-ethyl-7-fluoro-3-hydroxynaphthalen-1-yl)-8-fluoro-4-((R)-3-hydroxy-3-methylpiperidin-1-yl)pyrido[4,3-d]pyrimidin-2-yl)oxy)methyl)hexahydro-1H-pyrrolizin-3-yl)methyl 6-((1-(1-(2,6-dioxopiperidin-3-yl)-3-methyl-2-oxo-2,3-dihydro-1H-benzo[d]imidazol-5-yl)piperidin-4-yl)methyl)-2,6-diazaspiro[3.3]heptane-2-carboxylate] |
